Experimental data: paper PMC6790288 (The journal of pain : official journal of the American Pain …, 2019)
Where two headings read alike, the source gives them in different places.

Tests used:
[1] = 12 participants, 5 days rifampicin, 100 mg oral tramadol; cited from earlier work
[2] = cited from earlier work
[3] = tested on: cold-induced pain; experiment: Cold pressor test; type: in vivo, human
[4] = for (+)-M1 Cssmax 90% CI (bioequivalence ratio desmetramadol vs tramadol) / (+)-M1 Cssmin 90% CI (bioequivalence ratio desmetramadol vs tramadol) / (−)-M1 Cssmax 90% CI (bioequivalence ratio desmetramadol vs tramadol) / (−)-M1 Cssmin 90% CI (bioequivalence ratio desmetramadol vs tramadol): bioequivalent if within .80 to 1.25
[5] = tested on: healthy participants; experiment: Abuse liability visual analog scales; type: in vivo, human; details: trial A, n = 43, 0–100 mm VAS after seventh dose, M (SD)
[6] = tested on: healthy participants; experiment: Drug-related adverse events
[7] = tested on: healthy participants; experiment: Respiratory rate; details: trial B (with paroxetine), n = 60; MPD (SD)
[8] = tested on: pupil diameter; experiment: Pupillometry; type: in vivo, human; details: trial A; for Pupil diameter, predose: before first dose of segment
[9] = biological target: μ-opioid receptor; details: read-out: μ-opioid receptor affinity (Ki); in vitro, racemic M5; cited from earlier work
[10] = biological target: norepinephrine transporter; details: read-out: norepinephrine transporter Ki; in vitro functional potency; cited from earlier work
[11] = tested on: serotonin reuptake transporter; details: cited from earlier work
[12] = trial A, listed as desmetramadol

CN(C)C[C@H]1CCCC[C@]1(O)c1cccc(O)c1 [Desmetramadol, O-desmethyltramadol]
decrease of AUC by rifampicin induction [1]: 54% | increase of M1 formation rate by rifampicin induction [1]: 12% | lethal M1 blood concentrations exceed therapeutic levels [2]: ≤ 50 fold | average duration of tolerance to pain ([3]; trial A): 63 s | tolerance to pain, mean paired increase relative to placebo ([3]; trial A, mean [SE]): 12.6 [3.8] seconds | pain tolerated longer after desmetramadol than after tramadol ([3]; trial B (with paroxetine), male participants): 44% | tolerance to pain, mean paired increase relative to placebo ([3]; trial B (with paroxetine), male participants, mean [SE]): 9.9 [1.9] seconds | change in paired cold-induced pain scores at 30 seconds compared with placebo ([3]; trial B (with paroxetine), male population n = 42, mean [SE]): −.75 [.28] 0−10 VAS | change of (+)-M1 Cssmax, trial B (paroxetine) compared with trial A ([4]; steady state plasma): 41% | change of (+)-M1 Cssmin, trial B (paroxetine) compared with trial A ([4]; steady state plasma): 46% | (−)-M1 Cssmin and Cssmax lower for desmetramadol compared with tramadol ([4]; trial A): 30% | mean (+)-M1 in the poor metabolizer ([4]; trial A, CYP2D6 poor metabolizer): 41 ng/mL | mean (+)-M1 in the ultrarapid metabolizer ([4]; trial A, CYP2D6 ultrarapid metabolizer): 22 ng/mL | increase of mean desmetramadol (+)-M1 compared with tramadol (+)-M1 ([4]; trial A, poor metabolizer): 650% | decrease of mean desmetramadol (+)-M1 compared with tramadol (+)-M1 ([4]; trial A, ultrarapid metabolizer): 40% | (+)-M1 Cssmax 90% CI (bioequivalence ratio desmetramadol vs tramadol) ([4]; trial A): .88–1.13 | (+)-M1 Cssmin 90% CI (bioequivalence ratio desmetramadol vs tramadol) ([4]; trial A): .85–1.08 | (−)-M1 Cssmax 90% CI (bioequivalence ratio desmetramadol vs tramadol) ([4]; trial A): .67-.76 | (−)-M1 Cssmin 90% CI (bioequivalence ratio desmetramadol vs tramadol) ([4]; trial A): .69-.76 | (+)-M1 Cssmax 90% CI (bioequivalence ratio desmetramadol vs tramadol) [4, 12]: .88 −1.13 | (+)-M1 Cssmin 90% CI (bioequivalence ratio desmetramadol vs tramadol) [4, 12]: .85−1.08 | (−)-M1 Cssmax 90% CI (bioequivalence ratio desmetramadol vs tramadol) [4, 12]: .67 −.76 | (−)-M1 Cssmin 90% CI (bioequivalence ratio desmetramadol vs tramadol) [4, 12]: .69−.76 | desmetramadol (+)-M1 Cssmin and Cssmax exceed corresponding tramadol values ([4]; trial B (with paroxetine)): 3.5 fold | (+)-M1 Cssmax 90% CI (bioequivalence ratio desmetramadol vs tramadol) ([4]; trial B (with paroxetine)): 3.4–4.3 | (+)-M1 Cssmin 90% CI (bioequivalence ratio desmetramadol vs tramadol) ([4]; trial B (with paroxetine)): 3.4–4.3 | (−)-M1 Cssmax 90% CI (bioequivalence ratio desmetramadol vs tramadol) ([4]; trial B (with paroxetine)): .93–1.07 | (−)-M1 Cssmin 90% CI (bioequivalence ratio desmetramadol vs tramadol) ([4]; trial B (with paroxetine)): .95–1.09 | increase of steady-state (−)-M1 by paroxetine ([4]; trial B vs trial A): approximately 15% | increase of plasma (+)-M1 by paroxetine ([4]; trial B vs trial A, steady state): approximately 40% | Drug liking-disliking [5]: 47 (25) mm | Strength of drug effect [5]: 29 (28) mm | Take drug again [5]: 43 (26) mm | Strength of drug effect ([5]; listed as desmetramadol): 29 [28] mm | Deaths ([6]; trial A): 0(0) n (%) | Severe AEs ([6]; trial A): 0 (0) n (%) | participants reporting drug-related AEs ([6]; trial A): 44% | Dizziness ([6]; trial A, all): 6(14) n (%) | Euphoria ([6]; trial A, all): 0 (0) n (%) | Feel abnormal ([6]; trial A, all): 0 (0) n (%) | Feel hot ([6]; trial A, all): 0 (0) n (%) | Headache ([6]; trial A, all): 3 (7) n (%) | Nausea ([6]; trial A, all): 8(19) n (%) | Presyncope ([6]; trial A, all): 0 (0) n (%) | Pruritus ([6]; trial A, all): 3 (7) n (%) | Somnolence ([6]; trial A, all): 3 (7) n (%) | Spasticity ([6]; trial A, all): 0 (0) n (%) | Sweating ([6]; trial A, all): 0 (0) n (%) | Vomiting ([6]; trial A, all): 1 (2) n (%) | Dizziness ([6]; trial A, male): 6(14) n (%) | Euphoria ([6]; trial A, male): 0 (0) n (%) | Feel abnormal ([6]; trial A, male): 0 (0) n (%) | Feel hot ([6]; trial A, male): 0 (0) n (%) | Headache ([6]; trial A, male): 3 (7) n (%) | Nausea ([6]; trial A, male): 8(19) n (%) | Presyncope ([6]; trial A, male): 0 (0) n (%) | Pruritus ([6]; trial A, male): 3 (7) n (%) | Somnolence ([6]; trial A, male): 3 (7) n (%) | Spasticity ([6]; trial A, male): 0 (0) n (%) | Sweating ([6]; trial A, male): 0 (0) n (%) | Vomiting ([6]; trial A, male): 1 (2) n (%) | All drug-related AEs ([6]; trial A, n = 43 (all male)): 19 (44) n (%) | Deaths ([6]; trial B): 0 (0) n (%) | Severe AEs ([6]; trial B): 0 (0) n (%) | participants reporting drug-related AEs ([6]; trial B (with paroxetine)): 67% | All drug-related AEs ([6]; trial B (with paroxetine), n = 60): 40 (67) n (%) | Dizziness ([6]; trial B, all): 12 (20) n (%) | Euphoria ([6]; trial B, all): 2 (3) n (%) | Feel abnormal ([6]; trial B, all): 3 (5) n (%) | Feel hot ([6]; trial B, all): 3 (5) n (%) | Headache ([6]; trial B, all): 10(17) n (%) | Nausea ([6]; trial B, all): 16(27) n (%) | Presyncope ([6]; trial B, all): 6(10) n (%) | Pruritus ([6]; trial B, all): 4 (7) n (%) | Somnolence ([6]; trial B, all): 10(17) n (%) | Spasticity ([6]; trial B, all): 3 (5) n (%) | Sweating ([6]; trial B, all): 2 (3) n (%) | Vomiting ([6]; trial B, all): 9(15) n (%) | Dizziness ([6]; trial B, female): 5 (28) n (%) | Euphoria ([6]; trial B, female): 1 (6) n (%) | Feel abnormal ([6]; trial B, female): 1 (6) n (%) | Feel hot ([6]; trial B, female): 1 (6) n (%) | Headache ([6]; trial B, female): 6(33) n (%) | Nausea ([6]; trial B, female): 5 (28) n (%) | Presyncope ([6]; trial B, female): 3(17) n (%) | Pruritus ([6]; trial B, female): 3(17) n (%) | Somnolence ([6]; trial B, female): 6(33) n (%) | Spasticity ([6]; trial B, female): 0 (0) n (%) | Sweating ([6]; trial B, female): 0 (0) n (%) | Vomiting ([6]; trial B, female): 3(17) n (%) | Dizziness ([6]; trial B, male): 7(17) n (%) | Euphoria ([6]; trial B, male): 1 (2) n (%) | Feel abnormal ([6]; trial B, male): 2 (5) n (%) | Feel hot ([6]; trial B, male): 2 (5) n (%) | Headache ([6]; trial B, male): 4(10) n (%) | Nausea ([6]; trial B, male): 11 (26) n (%) | Presyncope ([6]; trial B, male): 3 (7) n (%) | Pruritus ([6]; trial B, male): 1 (2) n (%) | Somnolence ([6]; trial B, male): 4(10) n (%) | Spasticity ([6]; trial B, male): 3 (7) n (%) | Sweating ([6]; trial B, male): 2 (5) n (%) | Vomiting ([6]; trial B, male): 6(14) n (%) | Average postdose respiratory rate, mean paired difference versus placebo [7]: −.30 [.90] min^−1 | pupil diameter, mean paired reduction compared with placebo ([8]; after dosing, mean (SD)): −1.1 (.8) mm | Pupil diameter, after seventh dose ([8]; n = 43, M (SD)): 5.1 (1.2) mm | Pupil diameter, predose ([8]; n = 43, M (SD)): 6.0 (1.1) mm | Pupil diameter, predose ([8]; n = 43, M (SD), listed as desmetramadol): 6.0 [1.1] mm

CNCC1CCCCC1(O)c1cccc(O)c1 (centres unmarked) [M5, O,N-didesmethyltramadol]
Ki [9]: 100 nM

CC[C@@H](c1cccc(O)c1)[C@@H](C)CN(C)C [Tapentadol]
Ki [10]: 480 nM | activity at the serotonin reuptake transporter [11]: no activity
